Test results from publication PMC10497752, “Heparins are potent inhibitors of ectonucleotide pyrophosphatase/phospho-diesterase-1 (NPP1) – a promising target for the immunotherapy of cancer” (Frontiers in Immunology, 2023).

Assays:
[1] = tested on: ectonucleotidases expressed in U87 cell membrane preparations; assay: Enzymatic assay on U87 cell membrane preparations (adenosine formation, CE); type: biochemical, human; settings: 6 at 3 and 30 µM, 7 at 35 µM
Procedure: U87 glioblastoma cells were grown in cell culture dishes until reaching a fully covered confluent cell layer. Cells were cultivated at 37°C and 5% CO2 in DMEM with additions of 10% FCS, 1% penicillin/streptomycin (P/S) mixture and 1% L-glutamine. When confluent, the cell culture media was carefully removed and cells were frozen at -20°C overnight. The cells were then scraped off with a cell scraper using 2-3 mL of buffer (5 mM Tris, 2 mM EDTA, pH 7.4), homogenized and centrifuged for 10 min at 1000 g. The supernatant was collected and centrifuged for 60 min at 48000 g and 4°C. The pellet was then resuspended twice with Tris buffer, pH 7.4, followed by vortexing and centrifugation. The whole procedure was performed on ice. Finally, the pellet was resuspended and homogenized. A protein concentration of 1.5 mg/mL was determined with the Bradford method ([35]), and the protein was kept at -20°C until used. The enzymatic assay was performed by incubating the membrane preparation and the substrate at 37°C and 500 rpm for 30 min, followed by heat inactivation at 95°C for 5 min. For the determination of kinetic parameters, several substrate concentrations (from 6 to 500 µM of ATP or AMP) were utilized and incubated with 10 µg of membrane preparation for 30 min at 37°C, followed by heat inactivation. Capillary electrophoresis (CE) was used for analysis and quantification of the enzymatic product according to published procedures ([11], [36]). For the determination of the enzymatic activity 400 µM of ATP were employed, and three different amounts of membrane preparation (6, 10 and 30 µg of protein) were utilized. A positive control using the known NPP1 inhibitor PSB-POM-141 (20 µM) was performed ([19]). Data were obtained from three independent experiments each in duplicate measurements. […] Controls were run in parallel.

human NTPDase3 = target: T1, human NTPDase3 (Homo sapiens, UniProt O75355); assay: NTPDase CE-based assay, NTPDase3; type: biochemical; settings: 20 µg/mL (12 µM)
T1 construct: made in house; host or cells: COS-7 cells
T1 sequence (O75355 1-529): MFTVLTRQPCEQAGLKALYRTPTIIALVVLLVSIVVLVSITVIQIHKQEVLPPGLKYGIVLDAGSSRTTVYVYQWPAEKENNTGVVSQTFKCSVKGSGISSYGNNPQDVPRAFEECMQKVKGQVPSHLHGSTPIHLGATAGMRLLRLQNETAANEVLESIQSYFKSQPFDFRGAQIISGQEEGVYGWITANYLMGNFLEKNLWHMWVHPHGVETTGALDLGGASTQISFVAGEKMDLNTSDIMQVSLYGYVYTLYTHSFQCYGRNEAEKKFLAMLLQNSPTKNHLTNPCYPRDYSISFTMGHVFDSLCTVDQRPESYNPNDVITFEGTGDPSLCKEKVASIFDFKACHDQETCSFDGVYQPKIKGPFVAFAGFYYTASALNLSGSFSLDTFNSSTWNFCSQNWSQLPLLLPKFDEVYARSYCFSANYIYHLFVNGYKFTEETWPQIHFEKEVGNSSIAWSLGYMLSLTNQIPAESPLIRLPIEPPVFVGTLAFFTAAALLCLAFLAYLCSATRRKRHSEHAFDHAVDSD
Procedure: For monitoring the activity of human NTPDases (subtypes 1, 2, 3 and 8) in the presence of test compounds, a CE-based assay system was used, according to a published procedure ([11], [25]). The following concentrations of test compounds were investigated in initial screening studies: 63 IU/mL of compounds 1 and 2, 30 µM of compound 6. For selectivity studies, the following concentration were employed: 50 IU/mL of 1, 12 µM of 6, and 48 µM of 7. The amount of enzyme was selected according to previously performed enzymatic titration, and adjusted to ensure a 10–20% conversion rate. Enzymes were obtained by transfection of COS-7 cells using plasmids encoding human NTPDase1 (GenBank accession number U87967) ([26]), NTPDase2 (NM_203468) ([27]), a kind gift of Dr. A.F. Knowles (San Diego, CA), NTPDase3 (AF034840) ([28]), a kind gift of Dr. T.L. Kirley (Cincinnati, OH) and human NTPDase8 (AY430414) ([29]) and purified as previously described ([30], [31]). The reaction buffer consisted of 10 mM HEPES, 2 mM CaCl2, and 1 mM MgCl2, pH 7.4. In the CE assay, the selected substrate concentration (ATP) was 100 µM for all studied human NTPDases (-1, -2, -3 and -8). […] The released products were separated by CE and quantified by their UV-absorption at 260 nm with ADP and AMP as external standards, as previously described ([11]); positive and negative controls were included.

human NPP4 = target: T2, human NPP4 (Homo sapiens, UniProt Q9Y6X5); assay: NPP4 luminescence-based assay, Ap4A as substrate; type: biochemical; settings: 20 µg/mL (12 µM)
T2 construct: as a substrate and human soluble NPP4; made in house
T2 sequence (Q9Y6X5 16-407 limits assumed): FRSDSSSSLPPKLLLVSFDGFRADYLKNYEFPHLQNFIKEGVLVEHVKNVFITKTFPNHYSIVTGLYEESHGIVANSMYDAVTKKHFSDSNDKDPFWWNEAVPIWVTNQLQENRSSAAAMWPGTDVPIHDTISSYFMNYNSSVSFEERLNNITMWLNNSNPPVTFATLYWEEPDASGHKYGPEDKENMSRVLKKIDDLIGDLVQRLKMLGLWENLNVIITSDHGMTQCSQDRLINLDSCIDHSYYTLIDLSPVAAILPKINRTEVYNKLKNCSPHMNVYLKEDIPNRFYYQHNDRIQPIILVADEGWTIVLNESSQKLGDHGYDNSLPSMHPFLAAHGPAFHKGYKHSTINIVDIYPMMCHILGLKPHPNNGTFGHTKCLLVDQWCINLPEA
Procedure: Selectivity studies on NPP4 were performed using a published luminescence-based assay versus 20 μM of diadenosine tetraphosphate (Ap4A) as a substrate and human soluble NPP4 ([24]). The assay buffer consisted of 10 mM HEPES, 1 mM MgCl2, and 2 mM CaCl2 (pH 8.00). The enzyme reaction was started by adding 0.14 μg of purified human NPP4 to the reaction mixture, which was incubated at 37°C for 90 min. The released product ATP was quantified using the luciferin-luciferase reaction. The firefly luciferase reacts with D-luciferin in the presence of the formed ATP and Mg^2+. The resulting luminescence is a measure of the enzymatic activity, and the luminescence was read at 560 nm using a microplate reader (BMG PheraStar). Three independent experiments were performed, each in duplicate measurements; positive and negative controls were included.

Structure (SMILES): CO[C@H]1O[C@H](COS(=O)(=O)O)[C@@H](O[C@@H]2O[C@@H](C(=O)O)[C@@H](O[C@H]3O[C@H](COS(=O)(=O)O)[C@@H](O[C@@H]4O[C@H](C(=O)O)[C@@H](O[C@H]5O[C@H](COS(=O)(=O)O)[C@@H](O)[C@H](O)[C@H]5NS(=O)(=O)O)[C@H](O)[C@H]4O)[C@H](OS(=O)(=O)O)[C@H]3NS(=O)(=O)O)[C@H](O)[C@H]2OS(=O)(=O)O)[C@H](O)[C@H]1NS(=O)(=O)O [Compound 6, Fondaparinux]
- inhibition of the formation of adenosine from ATP [1]: inhibited the formation of adenosine in a dose-dependent manner
- NTPDase3 inhibition, selectivity study (human NTPDase3): no effect
- NPP4 inhibition, selectivity study (human NPP4): no effect
